From patent publication US4731451A, “N-((2-oxo-3(2H)benzothiazolyl)methyl)-2-chloroacetanilides” (Monsanto Company, priority 1980, dated 1988)

Legend:
Type in all cases: in vivo
Barnyardgrass [1] = experiment: Pre-emergent herbicidal activity (Table II); conditions: 2-3 weeks
Description: (§1) The pre-emergence tests are conducted as follows:
(§2) A good grade of top soil is placed in aluminum pans and compacted to a depth of three-eighths to one-half inch from the top of the pan. On the top of the soil is placed a predetermined number of seeds or vegetative propagules of various plant species. The soil required to level fill the pans after seeding or adding vegetative propagules is weighed into a pan. A known amount of the active ingredient applied in a solvent or as a wettable powder suspension and the soil are thoroughly mixed, and used as a cover layer for prepared pans. After treatment, the pans are moved into a greenhouse bench where they are watered from below as needed to give adequate moisture for germination and growth.
(§3) Approximately 2-3 weeks after seeding and treating, the plants are observed and the results recorded. The herbicidal rating is obtained by means of fixed scale based on the percent injury of each plant species. The ratings are defined as follows: […]
(§4) The plant species utilized in one set of tests, the data for which are shown in Table II, are identified by letter in accordance with the following legend: […]

Canada Thistle = experiment: Pre-emergent herbicidal activity (Table II); conditions: 2-3 weeks
Description: as §1, §2, §3, §4

Cocklebur [2] = experiment: Pre-emergent herbicidal activity (Table II); conditions: 2-3 weeks
Description: as §1, §2, §3, §4

Downy Brome [3] = experiment: Pre-emergent herbicidal activity (Table II); conditions: 2-3 weeks
Description: as §1, §2, §3, §4

Johnsongrass = experiment: Pre-emergent herbicidal activity (Table II); conditions: 2-3 weeks
Description: as §1, §2, §3, §4

Lambsquarters [4] = experiment: Pre-emergent herbicidal activity (Table II); conditions: 2-3 weeks
Description: as §1, §2, §3, §4

Morningglory [5] = experiment: Pre-emergent herbicidal activity (Table II); conditions: 2-3 weeks
Description: as §1, §2, §3, §4

Quackgrass = experiment: Pre-emergent herbicidal activity (Table II); conditions: 2-3 weeks
Description: as §1, §2, §3, §4

Smartweed [6] = experiment: Pre-emergent herbicidal activity (Table II); conditions: 2-3 weeks
Description: as §1, §2, §3, §4

Velvetleaf [7] = experiment: Pre-emergent herbicidal activity (Table II); conditions: 2-3 weeks
Description: as §1, §2, §3, §4

Yellow Nutsedge = experiment: Pre-emergent herbicidal activity (Table II); conditions: 2-3 weeks
Description: as §1, §2, §3, §4

Barnyardgrass [8] = experiment: Pre-emergent herbicidal activity (Table III)
Description: as §1, §2, §3
(§5) The compounds were further tested by utilizing the above procedure on the following plant species: […]

Cocklebur [9] = experiment: Pre-emergent herbicidal activity (Table III)
Description: as §1, §2, §3, §5

Crabgrass = experiment: Pre-emergent herbicidal activity (Table III)
Description: as §1, §2, §3, §5

Downy Brome [10] = experiment: Pre-emergent herbicidal activity (Table III)
Description: as §1, §2, §3, §5

Hemp Sesbania = experiment: Pre-emergent herbicidal activity (Table III)
Description: as §1, §2, §3, §5

Lambsquarters [11] = experiment: Pre-emergent herbicidal activity (Table III)
Description: as §1, §2, §3, §5

Morningglory [12] = experiment: Pre-emergent herbicidal activity (Table III)
Description: as §1, §2, §3, §5

Panicum = experiment: Pre-emergent herbicidal activity (Table III)
Description: as §1, §2, §3, §5

Rice = experiment: Pre-emergent herbicidal activity (Table III)
Description: as §1, §2, §3, §5

Smartweed [13] = experiment: Pre-emergent herbicidal activity (Table III)
Description: as §1, §2, §3, §5

Sorghum = experiment: Pre-emergent herbicidal activity (Table III)
Description: as §1, §2, §3, §5

Soybean = experiment: Pre-emergent herbicidal activity (Table III)
Description: as §1, §2, §3, §5

Sugarbeet = experiment: Pre-emergent herbicidal activity (Table III)
Description: as §1, §2, §3, §5

Velvetleaf [14] = experiment: Pre-emergent herbicidal activity (Table III)
Description: as §1, §2, §3, §5

Wheat = experiment: Pre-emergent herbicidal activity (Table III)
Description: as §1, §2, §3, §5

Wild Buckwheat = experiment: Pre-emergent herbicidal activity (Table III)
Description: as §1, §2, §3, §5
Note: ranges in brackets are in %.

For `CCc1cccc(CC)c1N(Cn1c(=O)sc2ccccc21)C(=O)CCl` [Example 3, N--[(2-oxo-3(2H)--benzothiazolyl)methyl]-2'-6'-diethyl-2-chloroacetanilide], the Herbicidal rating (Barnyardgrass [1]; 5.6 kg/ha) was 3 (75-100), the Herbicidal rating (Barnyardgrass [1]; 11.2 kg/ha) was 3 (75-100) and the Herbicidal rating (Canada Thistle; 5.6 kg/ha) was 0 (0-24). For the same compound, the Herbicidal rating (Canada Thistle; 11.2 kg/ha) was 0 (0-24), the Herbicidal rating (Cocklebur [2]; 5.6 kg/ha) was 0 (0-24) and the Herbicidal rating (Cocklebur [2]; 11.2 kg/ha) was 0 (0-24). For the same compound, the Herbicidal rating (Downy Brome [3]; 5.6 kg/ha) was 1 (25-49), the Herbicidal rating (Downy Brome [3]; 11.2 kg/ha) was 1 (25-49) and the Herbicidal rating (Johnsongrass; 5.6 kg/ha) was 0 (0-24). The Herbicidal rating (Johnsongrass; 11.2 kg/ha) was 0 (0-24), the Herbicidal rating (Lambsquarters [4]; 5.6 kg/ha) was 0 (0-24) and the Herbicidal rating (Lambsquarters [4]; 11.2 kg/ha) was 0 (0-24). For the same compound, the Herbicidal rating (Morningglory [5]; 5.6 kg/ha) was 0 (0-24), the Herbicidal rating (Morningglory [5]; 11.2 kg/ha) was 0 (0-24) and the Herbicidal rating (Quackgrass; 5.6 kg/ha) was 0 (0-24). The Herbicidal rating (Quackgrass; 11.2 kg/ha) was 1 (25-49), the Herbicidal rating (Smartweed [6]; 5.6 kg/ha) was 0 (0-24) and the Herbicidal rating (Smartweed [6]; 11.2 kg/ha) was 0 (0-24). The Herbicidal rating (Velvetleaf [7]; 5.6 kg/ha) was 0 (0-24), the Herbicidal rating (Velvetleaf [7]; 11.2 kg/ha) was 0 (0-24) and the Herbicidal rating (Yellow Nutsedge; 5.6 kg/ha) was 1 (25-49). The Herbicidal rating (Yellow Nutsedge; 11.2 kg/ha) was 1 (25-49), the Herbicidal rating (Barnyardgrass [8]; 0.28 kg/ha) was 3 (75-100) and the Herbicidal rating (Barnyardgrass [8]; 1.12 kg/ha) was 3 (75-100). The Herbicidal rating (Barnyardgrass [8]; 5.6 kg/ha) was 3 (75-100), the Herbicidal rating (Cocklebur [9]; 0.28 kg/ha) was 0 (0-24) and the Herbicidal rating (Cocklebur [9]; 1.12 kg/ha) was 0 (0-24). For the same compound, the Herbicidal rating (Cocklebur [9]; 5.6 kg/ha) was 0 (0-24), the Herbicidal rating (Crabgrass; 0.28 kg/ha) was 1 (25-49) and the Herbicidal rating (Crabgrass; 1.12 kg/ha) was 2 (50-74). The Herbicidal rating (Crabgrass; 5.6 kg/ha) was 3 (75-100), the Herbicidal rating (Downy Brome [10]; 0.28 kg/ha) was 0 (0-24) and the Herbicidal rating (Downy Brome [10]; 1.12 kg/ha) was 1 (25-49). The Herbicidal rating (Downy Brome [10]; 5.6 kg/ha) was 2 (50-74), the Herbicidal rating (Hemp Sesbania; 0.28 kg/ha) was 0 (0-24) and the Herbicidal rating (Hemp Sesbania; 1.12 kg/ha) was 0 (0-24). For the same compound, the Herbicidal rating (Hemp Sesbania; 5.6 kg/ha) was 0 (0-24), the Herbicidal rating (Lambsquarters [11]; 0.28 kg/ha) was 0 (0-24) and the Herbicidal rating (Lambsquarters [11]; 1.12 kg/ha) was 0 (0-24). The Herbicidal rating (Lambsquarters [11]; 5.6 kg/ha) was 0 (0-24), the Herbicidal rating (Morningglory [12]; 0.28 kg/ha) was 0 (0-24) and the Herbicidal rating (Morningglory [12]; 1.12 kg/ha) was 0 (0-24). The Herbicidal rating (Morningglory [12]; 5.6 kg/ha) was 0 (0-24), the Herbicidal rating (Panicum; 0.28 kg/ha) was 0 (0-24) and the Herbicidal rating (Panicum; 1.12 kg/ha) was 1 (25-49). The Herbicidal rating (Panicum; 5.6 kg/ha) was 3 (75-100), the Herbicidal rating (Rice; 0.28 kg/ha) was 1 (25-49) and the Herbicidal rating (Rice; 1.12 kg/ha) was 0 (0-24). The Herbicidal rating (Rice; 5.6 kg/ha) was 0 (0-24), the Herbicidal rating (Smartweed [13]; 0.28 kg/ha) was 0 (0-24) and the Herbicidal rating (Smartweed [13]; 1.12 kg/ha) was 1 (25-49). For the same compound, the Herbicidal rating (Smartweed [13]; 5.6 kg/ha) was 0 (0-24), the Herbicidal rating (Sorghum; 0.28 kg/ha) was 0 (0-24) and the Herbicidal rating (Sorghum; 1.12 kg/ha) was 0 (0-24). The Herbicidal rating (Sorghum; 5.6 kg/ha) was 0 (0-24), the Herbicidal rating (Soybean; 0.28 kg/ha) was 0 (0-24) and the Herbicidal rating (Soybean; 1.12 kg/ha) was 0 (0-24). For the same compound, the Herbicidal rating (Soybean; 5.6 kg/ha) was 0 (0-24), the Herbicidal rating (Sugarbeet; 0.28 kg/ha) was 0 (0-24) and the Herbicidal rating (Sugarbeet; 1.12 kg/ha) was 0 (0-24). The Herbicidal rating (Sugarbeet; 5.6 kg/ha) was 0 (0-24), the Herbicidal rating (Velvetleaf [14]; 0.28 kg/ha) was 0 (0-24) and the Herbicidal rating (Velvetleaf [14]; 1.12 kg/ha) was 0 (0-24). The Herbicidal rating (Velvetleaf [14]; 5.6 kg/ha) was 0 (0-24), the Herbicidal rating (Wheat; 0.28 kg/ha) was 0 (0-24) and the Herbicidal rating (Wheat; 1.12 kg/ha) was 0 (0-24). The Herbicidal rating (Wheat; 5.6 kg/ha) was 0 (0-24), the Herbicidal rating (Wild Buckwheat; 0.28 kg/ha) was 0 (0-24) and the Herbicidal rating (Wild Buckwheat; 1.12 kg/ha) was 0 (0-24). For the same compound, the Herbicidal rating (Wild Buckwheat; 5.6 kg/ha) was 0 (0-24).
